Earlier results as cited in US8481518B2, “Quaternary antimuscarinic compounds for the treatment of bladder diseases” (University of Rochester, priority 2003, dated 2013).
Counter-ions that a name gives are not always drawn.

Experiments:
[1] = intravesical instillation two to three times daily
[2] = oral, 5 mg/kg four times/day
[3] = generally 25 mg twice daily, adults with urge incontinence
[4] = tested on: all subtypes of human muscarinic receptors; details: in vitro

COC(=O)C1=CC[C@@H]2CC[C@H]1N2C [AEME, Anhydroecgonine methyl ester]
cholinergic agonist activity (muscarinic receptors; guinea pig tracheal rings and detrusor muscle in vitro): lacked cholinergic agonist activity
muscarinic antagonism (muscarinic receptors; in vitro): potent non-competitive muscarinic antagonist

CCN(CC)CC#CCOC(=O)C(O)(c1ccccc1)C1CCCCC1 (stereo not drawn) [oxybutynin, (4-diethylamino)2-butynyl-cc-cyclohexyl-a-hydroxybenzeneacetate HCl]
patients dropping out due to inability to tolerate catheterization or difficulty retaining drug solution [1]: 21%
severe mouth dryness, subjects affected [2]: 84%

CC(CC(c1ccccc1)c1ccccc1)NC(C)(C)C (stereo not drawn) [terodiline]
effect on micturition frequency and incontinence episodes [3]: reduced micturition frequency and incontinence episodes

C[N+]1(C)[C@@H]2C[C@@H](OC(=O)C(O)(c3cccs3)c3cccs3)C[C@H]1[C@@H]1O[C@@H]12 [tiotropium bromide, 6β,7β,Epoxy-3α-[2-hydroxy-2,2-di(2-thienyl)acetoxy]-8,8-dimethyl-1αH,5αH-tropanium bromide]
antagonism at all subtypes of human muscarinic receptors [4]: 10-11 M
